Results on 42 compounds are retold here after patent US20170037028A1 (BAYER PHARMA AKTIENGESELLSCHAFT, priority 2013, published 2017).

The assay deals with T1, GLUT1 (Homo sapiens, UniProt P11166).
T1 sequence (P11166 1-492): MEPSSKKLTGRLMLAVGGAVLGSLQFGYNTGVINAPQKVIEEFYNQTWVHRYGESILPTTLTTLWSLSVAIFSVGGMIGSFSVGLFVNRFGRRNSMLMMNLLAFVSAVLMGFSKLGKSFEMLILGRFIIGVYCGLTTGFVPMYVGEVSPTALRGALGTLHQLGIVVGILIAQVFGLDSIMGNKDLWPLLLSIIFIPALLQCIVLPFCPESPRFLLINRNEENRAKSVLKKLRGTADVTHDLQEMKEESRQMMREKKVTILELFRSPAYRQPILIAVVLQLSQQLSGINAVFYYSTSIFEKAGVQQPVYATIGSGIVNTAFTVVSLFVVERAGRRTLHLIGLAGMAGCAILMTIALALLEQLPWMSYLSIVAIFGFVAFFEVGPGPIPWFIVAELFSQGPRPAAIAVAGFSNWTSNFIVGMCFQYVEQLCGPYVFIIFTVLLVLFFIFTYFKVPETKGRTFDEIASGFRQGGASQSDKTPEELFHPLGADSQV
Put plainly: Indirect measurement of GLUT1 activity by quantification of intracellular ATP levels (glucose induced ATP increase). The assay is classed as cell-based. Details: endogenous in cells; host or cells: DLD1 or CHO-K1. To be noted: read-out: IC50 regarding glucose induced ATP increase (GLUT1 inhibition). The method, boiled down:
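Intracellular ATP was measured by CellTiter-Glo luminescence as an indirect readout of transport: glucose-driven for GLUT1, fructose-driven for GLUT2. DLD1 or CHO-K1 cells were used alongside an oxidative phosphorylation inhibitor. Beforehand, cells were held overnight in glucose-free 1% FCS medium to deplete ATP.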
Broadly, the IC50 is the concentration that gives 50% inhibition. In the case of `Cc1nn(Cc2ccc(F)c(F)c2)c(C)c1NC(=O)c1cc(C2CC2)nc2ccc(F)cc12` [Example 162, 2-cyclopropyl-N-[1-(3,4-difluorobenzyl)-3,5-dimethyl-1H-pyrazol-4-yl]-6-fluoroquinoline-4-carboxamide], the IC50 came out at 24.8 nM.
Consider `Cc1nn(Cc2cccc(C(F)(F)F)c2)c(C)c1NC(=O)c1cc(C(F)(F)F)nc2ccc(Br)cc12` [Example 1297], for which the half-inhibitory concentration (IC50) was 11100 nM.
The same measure for `Cc1c(NC(=O)c2cc(C(N)=O)nc3ccccc23)c(C(F)(F)F)nn1Cc1cccc(C(C)O)c1` (racemic) [Example 1644]: 184 nM; for `Cc1c(NC(=O)c2cc(S(C)(=O)=NC#N)nc3ccccc23)c(C(F)(F)F)nn1Cc1ccc(C#N)cc1` (racemic) [Example 386, (±)-N-[1-(4-cyanobenzyl)-5-methyl-3-(trifluoromethyl)-1H-pyrazol-4-yl]-2-(N-cyano-S-methylsulfonimidoyl)quinoline-4-carboxamide]: 43.2 nM; for `Cc1c(NC(=O)c2cc(C(N)=O)nc3cc(F)c(Cl)cc23)c(C(F)(F)F)nn1Cc1ccc(F)cc1C#N` [Example 1657]: 3.4 nM.
The value for `COCCNC(=O)c1ccc(Cn2nc(C)c(NC(=O)c3cc(C(N)=O)nc4cc(F)ccc34)c2C)cc1` [Example 1421] was 39 nM.
For `Cc1nn(Cc2ccc(CC#N)cc2)c(C)c1NC(=O)c1cc(C(N)=O)nc2cccc(F)c12` [Example 1612], the half-maximal inhibitory concentration (IC50) came to 2.4 nM.
For the compound `Cc1nn(Cc2ccc(C(=O)NCC3CCOCC3)cc2)c(C)c1NC(=O)c1cc(C(F)(F)F)nc2ccc(Br)cc12` [Example 1193], the IC50 turned out to be 343 nM.
For the compound `CCc1nn(Cc2ccc(F)cc2)c(CC)c1NC(=O)c1cc(C(N)=O)nc2ccccc12` [Example 1387], the concentration for half-maximal inhibition (IC50) was determined as 36.7 nM.
Consider `Cc1nn(Cc2ccc(C(=O)N3CC4(CCS4(=O)=O)C3)cc2)c(C)c1NC(=O)c1cc(C(F)(F)F)nc2ccc(Br)cc12` [Example 1087], for which the IC50 turned out to be 32.2 nM.
For `COc1ccc(Cn2nc(C)c(NC(=O)c3cc(C(N)=O)nc4ccccc34)c2C)cc1F` [Example 238, N^4-[1-(3-fluoro-4-methoxybenzyl)-3,5-dimethyl-1H-pyrazol-4-yl]quinoline-2,4-dicarboxamide], the 50% inhibitory concentration (IC50) was determined as 1.1 nM.
As for `COCCN(CCC#N)C(=O)c1ccc(Cn2nc(C)c(NC(=O)c3cc(C(F)(F)F)nc4ccc(Br)cc34)c2C)cc1` [Example 1054], the half-maximal inhibitory concentration (IC50) was determined as 13.9 nM.
As to `Cc1c(NC(=O)c2cc(C(N)=O)nc3cc(F)c(Cl)cc23)c(C(F)(F)F)nn1Cc1ccc(C#N)cc1` [Example 213, 6-chloro-N^4-[1-(4-cyanobenzyl)-5-methyl-3-(trifluoromethyl)-1H-pyrazol-4-yl]-7-fluoroquinoline-2,4-dicarboxamide], the IC50 came out at 0.7 nM.
As to `Cc1c(NC(=O)c2cc(C(N)=O)nc3cc(F)ccc23)c(C(F)(F)F)nn1Cc1ccc(CC(F)(F)F)cc1` [Example 1714], the half-maximal inhibitory concentration (IC50) amounted to 6.4 nM.
The value for `Cc1c(NC(=O)c2cc(C(N)=O)nc3ccc(S(N)(=O)=O)cc23)c(C(F)(F)F)nn1Cc1ccc(C#N)cc1` [Example 1382] was 5370 nM.
The same measure for `Cc1nn(CCN2CCCCC2)c(C)c1NC(=O)c1cc(C(F)(F)F)nc2ccc(Br)cc12` [Example 1220]: 723 nM; for `Cc1nn(Cc2ccc(C(=O)NCCCc3ccccc3)cc2)c(C)c1NC(=O)c1cc(C(F)(F)F)nc2ccc(Br)cc12` [Example 1178]: 224 nM; for `Cc1nn(Cc2ccc(F)cc2)c(C)c1NC(=O)c1cc(C2CC2)nc2c(C(F)(F)F)cccc12` [Example 108, 2-cyclopropyl-N-[1-(4-fluorobenzyl)-3,5-dimethyl-1H-pyrazol-4-yl]-8-(trifluoromethyl)quinoline-4-carboxamide]: 671 nM.
The value for `Cc1nn(Cc2ccc(S(C)(=N)=O)cc2)c(C)c1NC(=O)c1cc(C(F)(F)F)nc2ccc(Br)cc12` (racemic) [Example 1427] was 26.9 nM; that for `Cc1nn(Cc2ccc(CC(=O)NCc3ccccc3)cc2)c(C)c1NC(=O)c1cc(C(F)(F)F)nc2ccc(Br)cc12` [Example 154, N-(1-{4-[2-(benzylamino)-2-oxoethyl]benzyl}-3,5-dimethyl-1H-pyrazol-4-yl)-6-bromo-2-(trifluoromethyl)quinoline-4-carboxamide] was 196 nM.
Take `Cc1c(NC(=O)c2cc(C(F)(F)F)nc3ccc(Br)cc23)c(C#N)nn1Cc1ccc(F)cc1` [Example 1338]: the concentration for half-maximal inhibition (IC50) was 26.3 nM.
As for `Cc1ccc2nc(C)cc(C(=O)Nc3c(C(C)C)nn(Cc4ccc(F)cc4)c3C(C)C)c2c1` [Example 1356], the concentration for half-maximal inhibition (IC50) was above 13000 nM.
For `Cc1ccc(C#N)c(Cn2nc(C(F)(F)F)c(NC(=O)c3cc(C(N)=O)nc4cc(F)ccc34)c2C)c1` [Example 1700], the IC50 is 38.6 nM.
In the case of `Cc1nn(Cc2ccc(F)cc2)c(C)c1NC(=O)c1cc(N(C)C)nc2ccccc12` [Example 163, 2-(dimethylamino)-N-[1-(4-fluorobenzyl)-3,5-dimethyl-1H-pyrazol-4-yl]quinoline-4-carboxamide], the IC50 was 25 nM.
The value for `Cc1c(NC(=O)c2cc(C(N)=O)nc3ccccc23)c(C(F)(F)F)nn1Cc1ncccc1C#N` [Example 1393] was 15 nM.
`COC(=O)c1ccc2nc(C(F)(F)F)cc(C(=O)Nc3c(C)nn(Cc4ccc(F)cc4)c3C)c2c1` [Example 149, methyl 4-{[1-(4-fluorobenzyl)-3,5-dimethyl-1H-pyrazol-4-yl]carbamoyl}-2-(trifluoromethyl)quinoline-6-carboxylate]: the IC50 came to 11.7 nM.
`Cc1ccc2nc(C)cc(C(=O)Nc3c(C)nn(Cc4cccc(F)c4)c3C)c2c1` [Example 1236]: the concentration for half-maximal inhibition (IC50) worked out at 1290 nM.
For the compound `Cc1nn(Cc2ccccn2)c(C)c1NC(=O)c1cc(C(F)(F)F)nc2ccc(Br)cc12` [Example 70, 6-bromo-N-[3,5-dimethyl-1-(pyridin-2-ylmethyl)-1H-pyrazol-4-yl]-2-(trifluoromethyl)quinoline-4-carboxamide], the IC50 came out at 173 nM.
The same measure for `CCS(=O)(=O)N1CCC(Cn2nc(C(F)(F)F)c(NC(=O)c3cc(C(N)=O)nc4cc(F)c(Cl)cc34)c2C)CC1` [Example 413, 6-chloro-N^4-[1-{[1-(ethylsulfonyl)piperidin-4-yl]methyl}-5-methyl-3-(trifluoromethyl)-1H-pyrazol-4-yl]-7-fluoroquinoline-2,4-dicarboxamide]: 5.6 nM.
The same measure for `Cc1c(NC(=O)c2cc(C(N)=O)nc3ccccc23)c(C(F)(F)F)nn1Cc1ccc(F)cc1` [Example 130, N^4-[1-(4-fluorobenzyl)-5-methyl-3-(trifluoromethyl)-1H-pyrazol-4-yl]quinoline-2,4-dicarboxamide]: 4.6 nM; for `Cc1nn(C(C)c2ccccc2)c(C)c1NC(=O)c1cc(C(F)(F)F)nc2ccc(Br)cc12` (racemic) [Example 1360]: 21.6 nM; for `Cc1nn(CC2CCNCC2)c(C)c1NC(=O)c1cc(C(N)=O)nc2ccccc12` [Example 406, N^4-[3,5-dimethyl-1-(piperidin-4-ylmethyl)-1H-pyrazol-4-yl]quinoline-2,4-dicarboxamide]: 1530 nM.
In the case of `Cc1c(NC(=O)c2cc(C(N)=O)nc3cccc(F)c23)c(C(F)(F)F)nn1Cc1ccc(C#N)cc1F` [Example 306, N^4-[1-(4-cyano-2-fluorobenzyl)-5-methyl-3-(trifluoromethyl)-1H-pyrazol-4-yl]-5-fluoroquinoline-2,4-dicarboxamide], the IC50 amounted to 4.7 nM.
The value for `CCOC(=O)c1cc(Cn2nc(C(F)(F)F)c(NC(=O)c3cc(C(N)=O)nc4cc(F)c(Cl)cc34)c2C)on1` [Example 1683] was 109 nM; that for `Cc1cc(Cn2nc(C)c(NC(=O)c3cc(C(N)=O)nc4cc(F)ccc34)c2C)ccc1C#N` [Example 1698] was 1.2 nM; that for `Cc1nn(Cc2ccc(F)c(F)c2)c(C)c1NC(=O)c1cc(C2CCC2)nc2ccc(Br)cc12` [Example 144, 6-bromo-2-cyclobutyl-N-[1-(3,4-difluorobenzyl)-3,5-dimethyl-1H-pyrazol-4-yl]quinoline-4-carboxamide] was 5.7 nM.
For the compound `Cc1c(NC(=O)c2cc(C(N)=O)nc3cc(F)c(Cl)cc23)c(C(F)(F)F)nn1Cc1ccccc1OC(F)(F)F` [Example 1704], the half-maximal inhibitory concentration (IC50) stood at 110 nM.
`COc1cc(C(=O)Nc2c(C(F)(F)F)nn(Cc3ccc(C#N)cc3)c2C)c2ccccc2n1` [Example 1075]: the half-inhibitory concentration (IC50) is 22.5 nM.
The same measure for `Cc1nn(Cc2ccc(C#N)cc2)c(C)c1NC(=O)c1cc(N(C)C)nc2ccccc12` [Example 1092]: 37.9 nM; for `Cc1nn(Cc2ccc(F)cc2)c(C)c1NC(=O)c1cc(C(F)(F)F)nc2ccc(Cl)c(Cl)c12` [Example 22, 5,6-dichloro-N-[1-(4-fluorobenzyl)-3,5-dimethyl-1H-pyrazol-4-yl]-2-(trifluoromethyl)quinoline-4-carboxamide]: 15.4 nM.
In the case of `Cc1nn(Cc2cc(C#N)no2)c(C)c1NC(=O)c1cc(C(N)=O)nc2cc(F)ccc12` [Example 1566], the half-maximal inhibitory concentration (IC50) is 14.2 nM.
Turning to `Cc1c(NC(=O)c2cc(C(N)=O)nc3cc(F)c(Cl)cc23)c(C(F)(F)F)nn1Cc1cccc(C#N)n1` [Example 1689], the concentration for half-maximal inhibition (IC50) turned out to be 30.9 nM.
